Reference: patent publication US5990083A, “Multicatalytic protease inhibitors” (Cephalon, Inc., priority 1997, dated 1999)
Several values for one entry are separate records, joined by “and”; a condition that tells them apart may be missing. Identical values can stand only once.

Target: T1, human MCP (Homo sapiens, UniProt P28074+Q99436)
T1 construct: Samples of human liver and brain obtained post-mortem were used for isolation and partial purification of MCP; from tissue; host or cells: human liver and brain, post-mortem
Assay: Determination of IC50 values for MCP inhibitors (chymotrypsin-like or trypsin-like activity of MCP)
Format: biochemical
Conditions: Table 5, first series; enzyme incubated with inhibitor 15 minutes at 37° C. prior to substrate
Procedure: Samples of human liver and brain obtained post-mortem were used for isolation and partial purification of MCP by ion-exchange chromatography, ammonium sulfate precipitation, and gel filtration (e.g., Driscoll and Goldberg, Proc. Natl. Acad. Sci. 86, 787-791 (1989); Yamamoto et al., Biochim, Biophys. Acta 882, 297-304 (1986). For either starting material, tissue was homogenized in 10 volumes of 20 mM Tris-HCl (pH 7.5) containing 20% glycerol. Following centrifugation at 40,000×g for 30 minutes, proteolytic activity of the chymotrypsin-like component of MCP could be detected in the supernatant (see below). The supernatant was fractionated on a DEAE-Sepharose Fast Flow column equilibrated in homogenization buffer. For each liter of supernatant, 250 ml of resin was used. Following sample loading, the column was washed with ^~ 10 volumes homogenization buffer, and proteins were eluted with a linear NaCl gradient of from 0 to 400 mM (21 for 250 ml resin). Fractions were assayed for MCP activity, and the active fractions were pooled and subjected to precipitation with (NH4)2 SO4 at 80% saturation. Precipitated proteins were collected by centrifugation, resuspended in homogenization buffer, and loaded on a Sephacryl S300HR column (500 ml resin volume) that had been standardized using bovine serum albumin (68 kDa). A single peak of MCP activity was eluted with a molecular weight of ^~ 650 kDa. This preparation was free of other measurable proteolytic activities and maintained its MCP activity upon storage at 4° C. for >6 months. This preparation was used for most of the experiments. Further fractionation of the preparation on an hydroxyapatite-Ultrogel column (Yamamoto et al., supra) yielded a more highly purified enzyme, which according to denaturing SDS-polyacrylamide gel electrophoresis was comprised of the expected >10 subunits ranging in Mr from 20 to 35 kDa.
The procedure for MPC isolation described above generated an enzyme complex whose proteolytic activities were latent, but which could be activated by addition of low concentrations (0.02-0.05%) of SDS (Yamamoto et al., supra). The chymotrypsin-like activity was assayed according to the following procedure: in 96 well microtiter plates, human MCP was diluted 4 to 10-fold in homogenization buffer containing 0.04% SDS. A calorimetric substrate MeOSuc-EVKM-para-nitroanilide (methoxysuccinyl-Glu-Val-Lys-Met-pNa), purchased from Bachem Bioscience Inc., King of Prussia, Pennsylvania was added to a final concentration of 100 μM from a stock solution of 10 mM in dimethylsulfoxide. Reaction volumes were 200 μl per well. After incubation for various periods of time at 37° C., the concentration of free pNa was determined on a Biotech EL-340 microplate reader, reading absorption at 490 nm. Protease activity was determined under conditions in which substrate hydrolysis increased linearly with time and the change in absorption was proportional to the concentration of free pNa. Alternatively, a fluorogenic substrate was used, methoxysuccinyl-Phe-Leu-Phe-amidomethylcoumarin (Enzyme Systems Products, Dublin, Calif.), and the change in fluorescence monitored at an excitation of 390 nm, and an emission at 460 nm.
The trypsin-like activity of human MCP was assayed as described above with the following modifications. Reactions were carried out in Tris-glycerol buffer (pH 9.5) supplemented with 1 mM 2-mercaptoethanol, and the substrate was a fluorogenic substrate, Benzyloxycarbonyl--Phe--Arg--AMC (100 μM).
After incubation for various periods of time at 37° C., the concentration of free AMC was determined on a Fluoroskan II spectrofluorimeter with an excitation filter of 390 nm and an emission filter of 460 nm. Protease activity was determined under conditions in which substrate hydrolysis increased linearly with time and the change in fluorescence was proportional to the concentration of free AMC. […]

Row | Structure (SMILES) | IC50
1 | CC(C)C[C@@H](C=O)NC(=O)[C@H](CCCNC(=N)N[N+](=O)[O-])NC(=O)C(CCCCCCCCC#N)C1CCCC1 (stereo partly drawn) [Compound 14, 10-cyano-2-cyclopentyldecanoyl-N^g-nitro-L-arginyl-L-leucinal] | 7 nM and 6 nM
2 | COC(=O)CCCCCCCC(C(=O)N[C@@H](CCCNC(=N)NS(=O)(=O)c1c(C)c(C)c2c(c1C)CCC(C)(C)O2)C(=O)N[C@H](C=O)CC(C)C)C1CCCC1 (stereo partly drawn) [Compound 20, 9-Methoxycarbonyl-2-cyclopentyl-nonanoyl-N^g-(2,2,5,7,8-pentamethylchroman-6-sulfonyl)-L-arginyl-L-leucinal] | 10 nM
